Patent publication US20040097596A1 (priority 2000, published 2004)
Read-outs that look alike come from different tables or passages of the source.

Test system: Phytophthora infestans
Type: in vivo
Conditions: for E, Expected % disease control / O, Observed % disease control / O-E: A76 potato
[1] = 3 ppm, Jan. 25, 2001, FB 2001/3001
[2] = 3 ppm, Jan. 26, 2001, FB 2001/3001
[3] = 3 ppm, Jan. 27, 2001, FB 2001/3001
[4] = 3 ppm, Jan. 28, 2001, FB 2001/3001
[5] = 3 ppm, Jan. 29, 2001, FB 2001/3001
[6] = 3 ppm, Oct. 13, 2000, FB 2000/3024
[7] = 3 ppm, Oct. 16, 2000, FB 2000/3024
[8] = 3 ppm, Oct. 18, 2000, FB 2000/3024
[9] = 3 ppm, Oct. 20, 2000, FB 2000/3024
[10] = 10 ppm, Jan. 25, 2001, FB 2001/3001
[11] = 10 ppm, Jan. 26, 2001, FB 2001/3001
[12] = 10 ppm, Jan. 27, 2001, FB 2001/3001
[13] = 10 ppm, Jan. 28, 2001, FB 2001/3001
[14] = 10 ppm, Jan. 29, 2001, FB 2001/3001
[15] = 10 ppm, Oct. 13, 2000, FB 2000/3024
[16] = 10 ppm, Oct. 16, 2000, FB 2000/3024
[17] = 10 ppm, Oct. 18, 2000, FB 2000/3024
[18] = 10 ppm, Oct. 20, 2000, FB 2000/3024

## N#Cc1c(Cl)c(Cl)c(Cl)c(C#N)c1Cl [Chlorothalonil, chlorothalonil]
[1]
  E, Expected % disease control: 98.3%
  O, Observed % disease control: 91.7%
  O-E: −1.6
[2]
  E, Expected % disease control: 96.2%
  O, Observed % disease control: 94.9%
  O-E: −1.3
[3]
  E, Expected % disease control: 94.5%
  O, Observed % disease control: 92.7%
  O-E: −1.7
[4]
  E, Expected % disease control: 83.2%
  O, Observed % disease control: 86.9%
  O-E: 3.6
[5]
  E, Expected % disease control: 67.2%
  O, Observed % disease control: 77.9%
  O-E: 10.7
[6]
  E, Expected % disease control: 73.73%
  O, Observed % disease control: 83.1%
  O-E: 9.37
[7]
  E, Expected % disease control: 78.12%
  O, Observed % disease control: 86.09%
  O-E: 7.97
[8]
  E, Expected % disease control: 56.09%
  O, Observed % disease control: 76.41%
  O-E: 20.32
[9]
  E, Expected % disease control: 39.95%
  O, Observed % disease control: 75.7%
  O-E: 35.75
[10]
  E, Expected % disease control: 97.0%
  O, Observed % disease control: 97.2%
  O-E: 0.2
[11]
  E, Expected % disease control: 98.2%
  O, Observed % disease control: 97.4%
  O-E: −0.8
[12]
  E, Expected % disease control: 97.8%
  O, Observed % disease control: 97.9%
  O-E: 0.1
[13]
  E, Expected % disease control: 93.8%
  O, Observed % disease control: 99.0%
  O-E: 5.2
[14]
  E, Expected % disease control: 90.1%
  O, Observed % disease control: 97.0%
  O-E: 6.9
[15]
  E, Expected % disease control: 92.49%
  O, Observed % disease control: 88.73%
  O-E: −3.76
[16]
  E, Expected % disease control: 94.65%
  O, Observed % disease control: 95.36%
  O-E: 0.71
[17]
  E, Expected % disease control: 91.33%
  O, Observed % disease control: 87.77%
  O-E: −3.56
[18]
  E, Expected % disease control: 84.98%
  O, Observed % disease control: 79.74%
  O-E: −5.24
In combination with A76 potato, observed vs expected disease control
  performance in combination with A76 (indicative of synergy): better than expected
